Measurements: patent US8343999B2, “Thiazolyl compounds useful as kinase inhibitors” (Bristol-Myers Squibb Company, priority 2007, dated 2013)

Columns and labels:
[1] = biological target: IGF1-receptor (Homo sapiens, UniProt P08069); assay: IGF1-Receptor Tyrosine Kinase Assay (Caliper LabChip, fluoresceinated IGF1R substrate peptide); assay type: biochemical; conditions: In vitro kinase data; ATP 25 μM, IGF1-Receptor 14 nM; read-out: IGF-1R IC50
Experimental: D. IGF1-Receptor Tyrosine Kinase Assay
The assays were performed in U-bottom 384-well plates. The final assay volume was 30 μl prepared from 15 μl additions of enzyme and substrates (fluoresceinated IGF1R substrate peptide and ATP) and test compounds in assay buffer (100 mM HEPES pH 7.4, 10 mM MnCl2, 0.015% Brij35 and 4 mM DTT). The reaction was initiated by the combination of IGF1-receptor with substrates and test compounds. The reaction was incubated at room temperature for 60 min. and terminated by adding 30 μl of 35 mM EDTA to each sample. The reaction mixture was analyzed on the Caliper LabChip 3000 by electrophoretic separation of the fluorescent substrate and phosphorylated product. Inhibition data were calculated by comparison to no enzyme control reactions for 100% inhibition and vehicle-only reactions for 0% inhibition. The final concentration of reagents in the assays is ATP, 25 μM; FL-peptide, 1.5 μM; IGF1-Receptor, 14 nM; and DMSO, 1.6%. Dose response curves were generated to determine the concentration required inhibiting 50% of kinase activity (IC50). Compounds were dissolved at 10 mM in dimethylsulfoxide (DMSO) and evaluated at eleven concentrations, each in duplicate. IC50 values were derived by non-linear regression analysis.
(§1) Compounds described herein were tested in the above assay.

[2] = tested on: IGF1R-Sal tumors; assay: IGF-1R Sal Tumor Model (tumor xenograft in nude mice); assay type: in vivo; conditions: qd, orally for 4 consecutive days, nude mice bearing IGF1R-Sal tumors
Experimental: P. IGF-1R Sal Tumor Model
A salivary gland adenocarcinoma that developed spontaneously in a transgenic mouse (MCI-19) was excised and cut into fragments of about 20 mg. Tumor fragments were implanted s.c. into the ventral thoracic region of a group of six female, athymic BALB/c nu/nu mice (Harley Sprague-Dawley, Indianapolis, Ind.), using a 13-gauge trocar. Once established, the salivary gland-derived tumor line was designated IGF1R-Sal and was propagated as a tumor xenograft in nude mice. Tumors were passaged every 2 weeks, at which time the tumor reached f500 to 1,000 mm3 in size. For treatment studies, nude micebearing IGF1R-Sal tumors of about 100 mm3 in size were sorted into groups of five for treatment with vehicle (80% polyethylene glycol 400 in water) alone or the test article. Compounds were administered either on a bid schedule (oral doses 8 hours apart) or on a once a day schedule orally (qd) for 4 consecutive days. Tumors were measured at the start and end of treatment. Activity was measured as % tumor growth inhibition (% TGI). The % TGI was determined using the following formula (Ct−Tt)/(Ct−Co) where Ct is defined as the median tumor size of the control group at the end of treatment, Co is defined as the median tumor size of the control group at the start of treatment, and Tt is defined as the median tumor size of the treated group at the end of treatment.
as §1

IGF1-receptor, sequence (P08069 31-1367): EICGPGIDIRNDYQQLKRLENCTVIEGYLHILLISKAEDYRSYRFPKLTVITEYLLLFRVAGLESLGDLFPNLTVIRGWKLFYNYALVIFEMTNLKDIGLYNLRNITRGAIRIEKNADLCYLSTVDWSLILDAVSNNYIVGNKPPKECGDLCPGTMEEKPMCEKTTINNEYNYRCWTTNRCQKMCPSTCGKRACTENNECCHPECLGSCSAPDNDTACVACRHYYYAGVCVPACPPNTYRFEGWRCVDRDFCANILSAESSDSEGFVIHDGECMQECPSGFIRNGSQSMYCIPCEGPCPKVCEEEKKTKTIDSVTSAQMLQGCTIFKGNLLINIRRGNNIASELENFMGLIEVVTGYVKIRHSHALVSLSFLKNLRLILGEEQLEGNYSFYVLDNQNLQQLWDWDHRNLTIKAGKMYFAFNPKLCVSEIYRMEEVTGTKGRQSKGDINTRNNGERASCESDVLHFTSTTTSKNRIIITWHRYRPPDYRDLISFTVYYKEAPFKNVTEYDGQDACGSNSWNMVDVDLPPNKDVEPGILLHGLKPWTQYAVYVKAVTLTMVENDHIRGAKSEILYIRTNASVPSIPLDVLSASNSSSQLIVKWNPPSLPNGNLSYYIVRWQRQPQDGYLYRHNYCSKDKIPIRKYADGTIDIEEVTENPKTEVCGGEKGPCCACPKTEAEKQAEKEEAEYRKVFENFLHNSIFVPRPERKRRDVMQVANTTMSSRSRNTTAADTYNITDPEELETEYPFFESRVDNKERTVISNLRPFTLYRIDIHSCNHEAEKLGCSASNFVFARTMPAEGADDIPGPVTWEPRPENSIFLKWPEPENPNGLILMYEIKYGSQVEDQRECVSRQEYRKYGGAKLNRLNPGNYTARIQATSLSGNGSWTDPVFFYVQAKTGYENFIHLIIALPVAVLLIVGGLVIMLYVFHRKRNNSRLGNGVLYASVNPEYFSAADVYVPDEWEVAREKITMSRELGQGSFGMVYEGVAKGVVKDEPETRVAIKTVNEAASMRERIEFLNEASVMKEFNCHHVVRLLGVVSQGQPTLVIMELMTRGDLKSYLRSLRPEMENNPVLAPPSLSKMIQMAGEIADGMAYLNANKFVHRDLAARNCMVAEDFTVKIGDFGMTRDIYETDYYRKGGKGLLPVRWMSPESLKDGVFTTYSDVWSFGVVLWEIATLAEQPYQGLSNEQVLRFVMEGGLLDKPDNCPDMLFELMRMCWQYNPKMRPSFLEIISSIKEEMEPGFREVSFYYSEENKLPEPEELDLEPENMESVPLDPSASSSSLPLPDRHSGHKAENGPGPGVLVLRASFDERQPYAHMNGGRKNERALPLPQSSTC

Compound | IC50 [1] | other results
Cc1ccnc(Nc2ncc(Sc3ccnc(C(=O)NCC4(c5ccccc5)CCN(C)CC4)c3F)s2)c1 [Example 2, 3-Fluoro-N-((1-methyl-4-phenylpiperidin-4-yl)methyl)-4-(2-(4-methylpyridin-2-ylamino)thiazol-5-ylthio)picolinamide] | 0.009 µM | % TGI ([2]; 12.5 mg/kg): 107%
Cc1ccnc(Nc2ncc(Sc3ccnc(C(=O)NCC4(c5ccccc5)CCN(CCO)CC4)c3F)s2)c1 [Example 5, 3-Fluoro-N-((1-(2-hydroxyethyl)-4-phenylpiperidin-4-yl)methyl)-4-(2-(4-methylpyridin-2-ylamino)thiazol-5-ylthio)picolinamide] | 0.003 µM | % TGI ([2]; 12.5 mg/kg): 102%
Cc1ccnc(Nc2ncc(Sc3ccnc(C(=O)NCC4(c5ccccc5)CCNCC4)c3F)s2)c1 [Example 11, 3-Fluoro-4-(2-(4-methylpyridin-2-ylamino)thiazol-5-ylthio)-N-((4-phenylpiperidin-4-yl)methyl)picolinamide] | 0.004 µM | % TGI ([2]; 12.5 mg/kg): 19%
Cc1ccnc(Nc2ncc(Sc3ccnc(C(=O)NCC4(c5ccccc5)CCN(C(=O)CN(C)C)CC4)c3F)s2)c1 [Example 12, N-((1-(2-(dimethylamino)acetyl)-4-phenylpiperidin-4-yl)methyl)-3-fluoro-4-(2-(4-methylpyridin-2-ylamino)thiazol-5-ylthio)picolinamide] | 0.006 µM | % TGI ([2]; 12.5 mg/kg): 92%
Cc1ccnc(Nc2ncc(Sc3ccnc(C(=O)NCC4(c5ccccc5)CCN(C(=O)c5cccnc5)CC4)c3F)s2)c1 [Example 18, 3-Fluoro-4-(2-(4-methylpyridin-2-ylamino)thiazol-5-ylthio)-N-((1-nicotinoyl-4-phenylpiperidin-4-yl)methyl)picolinamide] | 0.001 µM | 
CC(=O)N1CCC(CNC(=O)c2nccc(Sc3cnc(Nc4cc(C)ccn4)s3)c2F)(c2ccccc2)CC1 [Example 22, N-((1-acetyl-4-phenylpiperidin-4-yl)methyl)-3-fluoro-4-(2-(4-methylpyridin-2-ylamino)thiazol-5-ylthio)picolinamide] | 0.003 µM | 
Cc1ccnc(Nc2ncc(Sc3ccnc(C(=O)NCC4(c5ccccc5)CCN(CCC#N)CC4)c3F)s2)c1 [Example 33, N-((1-(2-cyanoethyl)-4-phenylpiperidin-4-yl)methyl)-3-fluoro-4-(2-(4-methylpyridin-2-ylamino)thiazol-5-ylthio)picolinamide] | 0.32 µM | 
Cc1ccnc(Nc2ncc(Sc3ccnc(C(=O)NCC4(c5ccccn5)CCN(CCO)CC4)c3F)s2)c1 [Example 58, 3-fluoro-N-((1-(2-hydroxyethyl)-4-(pyridin-2-yl)piperidin-4-yl)methyl)-4-(2-(4-methylpyridin-2-ylamino)thiazol-5-ylthio)picolinamide] | 0.003 µM | 
Cc1ccnc(Nc2ncc(Sc3ccnc(C(=O)NCC4(c5ccc(F)cc5F)CCN(C[C@H](O)CO)CC4)c3F)s2)c1 [Example 77, (S)—N-((4-(2,4-difluorophenyl)-1-(2,3-dihydroxypropyl)piperidin-4-yl)methyl)-3-fluoro-4-(2-(4-methylpyridin-2-ylamino)thiazol-5-ylthio)picolinamide] | 0.009 µM | % TGI ([2]; 25 mg/kg): 114%

Now from value to molecule, other results behind:

IC50 [1] | Compound | other results
0.001 µM | Cc1ccnc(Nc2ncc(Sc3ccnc(C(=O)NCC4(c5ccccc5)CCN(S(C)(=O)=O)CC4)c3F)s2)c1 [Example 24, 3-Fluoro-4-(2-(4-methylpyridin-2-ylamino)thiazol-5-ylthio)-N-((1-(methylsulfonyl)-4-phenylpiperidin-4-yl)methyl)picolinamide] | 
25 µM | Cc1ccnc(Nc2ncc(Sc3ccnc(C(=O)NCC4(C5CCCCC5)CCN(C(=O)OC(C)(C)C)CC4)c3F)s2)c1 [Example 44, tert-butyl 4-cyclohexyl-4-((3-fluoro-4-(2-(4-methylpyridin-2-ylamino)thiazol-5-ylthio)picolinamido)methyl)piperidine-1-carboxylate] | 
0.009 µM | Cc1ccnc(Nc2ncc(Sc3ccnc(C(=O)NCC4(C5CCCCC5)CCN(C[C@H](O)CO)CC4)c3F)s2)c1 [Example 74, (S)—N-((4-cyclohexyl-1-(2,3-dihydroxypropyl)piperidin-4-yl)methyl)-3-fluoro-4-(2-(4-methylpyridin-2-ylamino)thiazol-5-ylthio)picolinamide] | % TGI ([2]; 50 mg/kg): 100%
5.69 µM | COCCOC(=O)N1CCC(CNC(=O)c2nccc(Sc3cnc(Nc4cc(C)ccn4)s3)c2F)(c2ccc(Cl)c(Cl)c2)CC1 [Example 86, 2-methoxyethyl 4-(3,4-dichlorophenyl)-4-((3-fluoro-4-(2-(4-methylpyridin-2-ylamino)thiazol-5-ylthio)picolinamido)methyl)piperidine-1-carboxylate] | 
0.423 µM | COC(=O)N1CCC(CNC(=O)c2nccc(Sc3cnc(Nc4cc(C)ccn4)s3)c2F)(c2ccccn2)CC1 [Example 87, Methyl 4-((3-fluoro-4-(2-(4-methylpyridin-2-ylamino)thiazol-5-ylthio)picolinamido)methyl)-4-(pyridin-2-yl)piperidine-1-carboxylate] | 
0.349 µM | COCCOC(=O)N1CCC(CNC(=O)c2nccc(Sc3cnc(Nc4cc(C)ccn4)s3)c2F)(c2ccccn2)CC1 [Example 88, 2-Methoxyethyl 4-((3-fluoro-4-(2-(4-methylpyridin-2-ylamino)thiazol-5-ylthio)picolinamido)methyl)-4-(pyridin-2-yl)piperidine-1-carboxylate] | 
0.358 µM | Cc1ccnc(Nc2ncc(Sc3ccnc(C(=O)NCC4(c5ccccc5)CCN(C(=O)N(C)C)CC4)c3F)s2)c1 [Example 89, N-((1-(dimethylcarbamoyl)-4-phenylpiperidin-4-yl)methyl)-3-fluoro-4-(2-(4-methylpyridin-2-ylamino)thiazol-5-ylthio)picolinamide] | 
0.311 µM | Cc1ccnc(Nc2ncc(Sc3ccnc(C(=O)NCC4(c5ccccc5)CCN(C(=O)N5CCOCC5)CC4)c3F)s2)c1 [Example 90, 3-Fluoro-4-(2-(4-methylpyridin-2-ylamino)thiazol-5-ylthio)-N-((1-(morpholine-4-carbonyl)-4-phenylpiperidin-4-yl)methyl)picolinamide] | 
2 µM | Cc1ccnc(Nc2ncc(Sc3ccnc(C(=O)NCC4(c5ccccc5)CCN(C(=O)c5ccc(Cl)c(S(N)(=O)=O)c5)CC4)c3F)s2)c1 [Example 92, N-((1-(4-chloro-3-sulfamoylbenzoyl)-4-phenylpiperidin-4-yl)methyl)-3-fluoro-4-(2-(4-methylpyridin-2-ylamino)thiazol-5-ylthio)picolinamide] | 
3.26 µM | Cc1ccnc(Nc2ncc(Sc3ccnc(C(=O)NCC4(c5ccccc5)CCN(C(=O)c5cc(S(N)(=O)=O)c(F)cc5Cl)CC4)c3F)s2)c1 [Example 93, N-((1-(2-chloro-4-fluoro-5-sulfamoylbenzoyl)-4-phenylpiperidin-4-yl)methyl)-3-fluoro-4-(2-(4-methylpyridin-2-ylamino)thiazol-5-ylthio)picolinamide] | 
4.52 µM | Cc1ccnc(Nc2ncc(Sc3ccnc(C(=O)NCC4(c5ccccc5)CCN(C(=O)C(C)(C)N)CC4)c3F)s2)c1 [Example 95, N-((1-(2-amino-2-methylpropanoyl)-4-phenylpiperidin-4-yl)methyl)-3-fluoro-4-(2-(4-methylpyridin-2-ylamino)thiazol-5-ylthio)picolinamide] | 
